Measurements: ChEMBL document CHEMBL1137098, “Design, synthesis, and biochemical evaluation of novel alpha V beta 3 integrin ligands” (Bioorg Med Chem Lett, 2004)

Legend:
Type in all cases: protein-complex assay
Integrin alpha-V/beta-3 = Integrin alpha-V/beta-3 (Homo sapiens, UniProt P05106+P06756); assay: In vitro inhibitory activity against alpha v beta 3 vitronectin protein interaction was measured by ELISA
[1] = target: Integrin alpha-IIb/beta-3 (Homo sapiens, UniProt P05106+P08514); assay: In vitro inhibitory activity against alpha IIb beta IIIa fibrinogen protein interaction was measured by ELISA
Chain of Integrin alpha-IIb/beta-3 (P05106 27-788 limits assumed): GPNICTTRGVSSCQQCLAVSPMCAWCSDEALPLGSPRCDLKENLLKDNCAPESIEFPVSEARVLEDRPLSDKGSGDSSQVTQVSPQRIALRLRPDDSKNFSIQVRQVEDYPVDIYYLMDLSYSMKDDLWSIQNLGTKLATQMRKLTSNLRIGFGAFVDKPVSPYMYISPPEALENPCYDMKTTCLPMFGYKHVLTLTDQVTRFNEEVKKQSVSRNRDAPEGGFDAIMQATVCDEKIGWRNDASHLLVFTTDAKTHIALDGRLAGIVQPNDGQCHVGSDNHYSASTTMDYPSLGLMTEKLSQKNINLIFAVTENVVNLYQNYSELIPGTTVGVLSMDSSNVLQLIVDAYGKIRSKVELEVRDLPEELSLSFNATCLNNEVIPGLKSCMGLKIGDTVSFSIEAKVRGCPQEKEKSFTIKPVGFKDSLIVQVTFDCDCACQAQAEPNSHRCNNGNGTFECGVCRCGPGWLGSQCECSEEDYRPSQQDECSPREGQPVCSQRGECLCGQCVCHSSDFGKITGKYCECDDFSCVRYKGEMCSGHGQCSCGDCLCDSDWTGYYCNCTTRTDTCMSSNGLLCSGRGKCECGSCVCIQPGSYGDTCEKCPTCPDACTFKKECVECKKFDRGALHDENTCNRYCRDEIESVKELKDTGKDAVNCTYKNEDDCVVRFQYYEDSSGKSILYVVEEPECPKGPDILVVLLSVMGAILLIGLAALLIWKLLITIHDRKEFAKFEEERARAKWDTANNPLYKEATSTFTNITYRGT
Chain of Integrin alpha-IIb/beta-3 (P08514 32-887 limits assumed): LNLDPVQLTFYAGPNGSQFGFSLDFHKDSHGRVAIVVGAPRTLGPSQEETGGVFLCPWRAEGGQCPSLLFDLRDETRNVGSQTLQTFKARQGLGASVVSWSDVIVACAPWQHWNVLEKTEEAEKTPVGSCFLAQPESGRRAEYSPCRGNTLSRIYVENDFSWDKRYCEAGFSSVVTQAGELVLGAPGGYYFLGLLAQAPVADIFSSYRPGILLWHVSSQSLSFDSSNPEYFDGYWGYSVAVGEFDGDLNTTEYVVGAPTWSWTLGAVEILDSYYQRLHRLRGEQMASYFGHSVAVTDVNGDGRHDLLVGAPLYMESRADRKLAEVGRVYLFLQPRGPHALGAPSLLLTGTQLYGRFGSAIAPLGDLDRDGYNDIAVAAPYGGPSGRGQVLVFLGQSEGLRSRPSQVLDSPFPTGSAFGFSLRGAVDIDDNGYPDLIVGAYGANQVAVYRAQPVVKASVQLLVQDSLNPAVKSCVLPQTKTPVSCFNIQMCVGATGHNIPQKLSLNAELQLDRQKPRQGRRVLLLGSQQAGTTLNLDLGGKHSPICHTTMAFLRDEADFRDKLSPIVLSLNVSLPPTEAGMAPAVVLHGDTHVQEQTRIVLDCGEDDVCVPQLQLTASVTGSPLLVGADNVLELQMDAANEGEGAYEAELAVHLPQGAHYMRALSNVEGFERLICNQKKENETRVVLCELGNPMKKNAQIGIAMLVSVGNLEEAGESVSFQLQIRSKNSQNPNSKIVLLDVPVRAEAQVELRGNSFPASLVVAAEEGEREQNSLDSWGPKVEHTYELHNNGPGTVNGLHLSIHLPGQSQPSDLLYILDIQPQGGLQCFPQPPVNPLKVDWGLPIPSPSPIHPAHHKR
Chain of Integrin alpha-IIb/beta-3 (P08514 891-1039 limits assumed): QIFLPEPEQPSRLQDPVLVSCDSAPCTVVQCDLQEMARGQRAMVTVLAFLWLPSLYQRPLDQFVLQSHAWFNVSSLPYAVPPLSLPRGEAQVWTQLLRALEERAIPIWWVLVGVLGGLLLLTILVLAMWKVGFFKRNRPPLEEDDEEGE

Integrin alpha-V/beta-5 = Integrin alpha-V/beta-5 (Homo sapiens, UniProt P06756+P18084); assay: In vitro inhibitory activity against alpha v beta 5 vitronectin protein interaction was measured by ELISA
Chain of Integrin alpha-V/beta-5 (P06756 31-889 limits assumed): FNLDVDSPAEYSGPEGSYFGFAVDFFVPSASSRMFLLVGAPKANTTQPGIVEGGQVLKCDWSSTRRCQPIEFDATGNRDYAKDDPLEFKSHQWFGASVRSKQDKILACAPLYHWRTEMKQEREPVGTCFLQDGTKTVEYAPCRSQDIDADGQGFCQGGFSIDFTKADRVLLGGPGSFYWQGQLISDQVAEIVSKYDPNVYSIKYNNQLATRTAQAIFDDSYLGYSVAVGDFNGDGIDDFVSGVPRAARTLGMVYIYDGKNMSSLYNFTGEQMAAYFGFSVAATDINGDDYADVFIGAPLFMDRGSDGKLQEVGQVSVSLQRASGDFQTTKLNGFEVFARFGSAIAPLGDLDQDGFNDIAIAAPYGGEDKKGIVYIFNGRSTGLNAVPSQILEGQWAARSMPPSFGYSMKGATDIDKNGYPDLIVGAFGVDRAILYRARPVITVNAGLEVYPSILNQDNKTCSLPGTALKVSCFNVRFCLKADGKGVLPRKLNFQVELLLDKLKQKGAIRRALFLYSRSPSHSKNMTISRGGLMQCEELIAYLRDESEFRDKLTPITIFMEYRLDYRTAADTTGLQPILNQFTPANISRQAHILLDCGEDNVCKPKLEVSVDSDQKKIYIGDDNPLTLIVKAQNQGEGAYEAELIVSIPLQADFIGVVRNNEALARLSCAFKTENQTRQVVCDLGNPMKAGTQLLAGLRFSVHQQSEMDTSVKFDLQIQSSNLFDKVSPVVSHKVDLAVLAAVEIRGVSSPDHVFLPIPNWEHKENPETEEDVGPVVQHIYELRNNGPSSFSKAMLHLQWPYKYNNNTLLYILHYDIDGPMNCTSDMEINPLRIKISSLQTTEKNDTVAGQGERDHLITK
Chain of Integrin alpha-V/beta-5 (P06756 891-1048 limits assumed): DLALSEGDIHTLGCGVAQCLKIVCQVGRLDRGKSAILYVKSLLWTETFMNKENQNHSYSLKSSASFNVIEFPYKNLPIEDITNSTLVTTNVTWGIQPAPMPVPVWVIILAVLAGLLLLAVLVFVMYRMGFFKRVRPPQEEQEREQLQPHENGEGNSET
Chain of Integrin alpha-V/beta-5 (P18084 24-799 limits assumed): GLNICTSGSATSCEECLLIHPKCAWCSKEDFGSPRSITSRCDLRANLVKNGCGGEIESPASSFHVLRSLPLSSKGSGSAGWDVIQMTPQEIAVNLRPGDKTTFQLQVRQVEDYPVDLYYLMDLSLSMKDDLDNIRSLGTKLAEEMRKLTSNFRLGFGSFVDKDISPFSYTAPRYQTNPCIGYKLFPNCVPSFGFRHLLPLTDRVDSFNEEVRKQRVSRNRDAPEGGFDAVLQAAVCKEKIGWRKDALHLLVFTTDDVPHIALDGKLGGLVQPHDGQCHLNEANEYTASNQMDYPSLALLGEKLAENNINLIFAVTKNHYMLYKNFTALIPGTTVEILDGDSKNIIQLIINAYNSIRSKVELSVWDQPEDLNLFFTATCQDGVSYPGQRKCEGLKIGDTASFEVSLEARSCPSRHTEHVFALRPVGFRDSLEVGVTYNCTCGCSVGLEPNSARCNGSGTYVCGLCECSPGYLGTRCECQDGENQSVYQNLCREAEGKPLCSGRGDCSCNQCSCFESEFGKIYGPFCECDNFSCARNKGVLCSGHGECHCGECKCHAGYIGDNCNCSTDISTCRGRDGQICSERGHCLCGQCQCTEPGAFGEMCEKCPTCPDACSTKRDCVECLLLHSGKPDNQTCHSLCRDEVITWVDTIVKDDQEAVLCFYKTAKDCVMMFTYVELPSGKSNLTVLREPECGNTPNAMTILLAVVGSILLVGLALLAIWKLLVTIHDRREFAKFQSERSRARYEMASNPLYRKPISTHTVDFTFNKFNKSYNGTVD

Integrin alpha-5/beta-1 = Integrin alpha-5/beta-1 (Homo sapiens, UniProt P05556+P08648); assay: In vitro inhibitory activity against alpha 5 beta 1 fibronectin protein interaction was measured by ELISA

Chain of Integrin alpha-V/beta-3 (P05106 27-788 limits assumed): as the sequence (P05106 27-788 limits assumed) above
Chain of Integrin alpha-V/beta-3 (P06756 31-889 limits assumed): as the sequence (P06756 31-889 limits assumed) above
Chain of Integrin alpha-V/beta-3 (P06756 891-1048 limits assumed): as the sequence (P06756 891-1048 limits assumed) above

Compound: N=C(N)NOCCOc1ccc2[nH]c(C(=O)NC(CC(=O)O)c3cc(Cl)cc(Cl)c3)cc2c1 (stereo not given)
- IC50 (Integrin alpha-V/beta-3): > 20 nM

Compound: N=C(N)NOCCOc1ccc2[nH]c(C(=O)NCC(NS(=O)(=O)c3ccccc3)C(=O)O)cc2c1 (stereo not given)
- IC50 [1]: 13 nM
- IC50 (Integrin alpha-V/beta-5): 1000 nM
- IC50 (Integrin alpha-V/beta-3): 3.4 nM

Compound: NC(N)=NOCCOc1ccc2[nH]c(C(=O)NCC(N)C(=O)O)cc2c1 (stereo not given)
- IC50 (Integrin alpha-V/beta-3): > 20000 nM

Compound: N=C(N)NOCCOc1ccc2[nH]c(C(=O)NCC(NCc3ccccc3)C(=O)O)cc2c1 (stereo not given)
- IC50 (Integrin alpha-V/beta-3): > 20000 nM

Compound: Cc1ccc(S(=O)(=O)NC(CNC(=O)c2cc3cc(OCCON=C(N)N)ccc3[nH]2)C(=O)O)cc1 (stereo not given)
- IC50 (Integrin alpha-V/beta-3): 9 nM

Compound: CC1(C)C2CCC1(S(=O)(=O)NC(CNC(=O)c1cc3cc(OCCONC(=N)N)ccc3[nH]1)C(=O)O)CC2 (stereo not given)
- IC50 (Integrin alpha-V/beta-3): 0.4 nM

Compound: N=C(N)NOCCOc1ccc2[nH]c(C(=O)NCC(NC(=O)c3ccccc3)C(=O)O)cc2c1 (stereo not given)
- IC50 (Integrin alpha-V/beta-3): 310 nM

Compound: N=C(N)NOCCOc1ccc2[nH]c(C(=O)NCC(NC(=O)OCc3ccccc3)C(=O)O)cc2c1 (stereo not given)
- IC50 (Integrin alpha-V/beta-3): 7.2 nM

Compound: O=C(NCC(NS(=O)(=O)c1ccccc1)C(=O)O)c1cc2cc(OCCONC3=NCCN3)ccc2[nH]1 (stereo not given)
- IC50 [1]: 170 nM
- IC50 (Integrin alpha-V/beta-5): > 20000 nM
- IC50 (Integrin alpha-V/beta-3): 100 nM
- IC50 (Integrin alpha-5/beta-1): > 20000 nM

Compound: O=C(NCc1ccccc1)NOCCOc1ccc2[nH]c(C(=O)NCC(NC(=O)OCc3ccccc3)C(=O)O)cc2c1 (stereo not given)
- IC50 (Integrin alpha-V/beta-3): > 20000 nM

Compound: N=C(N)NOCCOc1ccc2[nH]c(C(=O)NCC(NS(=O)(=O)c3cc(Cl)cc(Cl)c3)C(=O)O)cc2c1 (stereo not given)
- IC50 [1]: 25 nM
- IC50 (Integrin alpha-V/beta-3): 6.1 nM
- IC50 (Integrin alpha-5/beta-1): > 1000 nM

Compound: Cc1ccc(S(=O)(=O)NC(CNC(=O)c2cc3cc(OCCO/N=C(\N)NC(=O)OC(C)(C)C)ccc3[nH]2)C(=O)O)cc1 (stereo not given)
- IC50 (Integrin alpha-V/beta-3): 130 nM

Compound: CCCCS(=O)(=O)NC(CNC(=O)c1cc2cc(OCCON=C(N)N)ccc2[nH]1)C(=O)O (stereo not given)
- IC50 (Integrin alpha-V/beta-3): 10.5 nM
